Converted amounts (≈) assume the structure as drawn. Where no end group is shown, it is not given here.

Data set [1] can be described thus: DPPH• radical scavenging assay. The following applies: relative concentration to reduce 50% of initial DPPH•; mean ± SD, n = 3. Here is the method: The free radical-scavenger activity was determined by the DPPH^• assay, according to Oliveira et al.. Briefly, in a 96 well-plate, 19.4 µL of aqueous solutions of the peptides at different concentrations (100–0.1 µg/mL) was added per well. Then, 175 µL of an ethanolic solution of 2,2-diphenyl-1-picrylhydrazyl radical (DPPH^•, Merck) was added to the wells ([…]—90 µM for final concentration in the experiment). The absorbance was read at 515 nm (Multiskan SkyHigh multiplate reader, Thermo Fisher Scientific) in kinetic mode for 60 min and at room temperature. The percentage of remaining DPPH^• was plotted against the peptides’ concentrations and the amount of test compounds necessary to decrease by 50% the initial concentration of DPPH (RIC50) was calculated (GraphPad Prism 9.4.0, GraphPad Software). Quercetin (100–0.1 µg/mL in ethanol) was used as a positive control.
The DPPH^• radical scavenging activity determines the ability of an antiradical compound to neutralize DPPH^• radical to its reduced form (DPPH-H) and is usually expressed as the concentration of the compound required to reduce the DPPH^• radical by 50% (IC₅₀). […]
(In general: DPPH is a stable violet radical that fades when it is reduced.)

Data set [2] in a line: in vitro. It counts as cell-based, murine. To be noted: for IC50 at 24 h: mouse. Here is the method: RAW 264.7 (ATCC TIB-71) murine macrophage-like cells were cultured in high-glucose Dulbecco’s modified Eagle’s medium (DMEM, Sigma-Aldrich) supplemented with 10% fetal bovine serum (FBS, Corning) and 1% penicillin/streptomycin (Corning). Cells were grown under standard culture conditions in a 5% CO2 incubator at 37 °C (MCO-170AC incubator; PHC Corporation, Tokyo, Japan), and were sub-cultured every two or three days when it was noticed that the cells had reached around 80% confluence. The assays were performed in cell passages from passages 9 to 21 to avoid phenotypic and genetic instability. Unless otherwise stated, all treatments were carried out with DMEM supplemented with 1% penicillin/streptomycin only (serum-free conditions). The cytotoxicity of the peptides towards RAW 264.7 cells was evaluated using the colorimetric 3-(4,5-dimethylthiazol-2-yl)-2,5-diphenyl tetrazolium bromide (MTT) assay. The assay was performed according to Mosmann, with a few modifications. Briefly, cells were seeded in a 96-well plate at a density of 2.5 × 10^3 cells per well and incubated for 24 h (5% CO2, 37 °C). After the incubation period, the medium was removed and replaced with different concentrations of the peptides’ aqueous solutions diluted in fresh FBS-free DMEM to the final concentrations of 1–0.005 mg/mL in each well. Following another 24 h incubation period, 10 µL of a 5 mg/mL stock solution of 3-(4,5-Dimethylthiazol-2-yl)-2,5-diphenyltetrazolium bromide (MTT; Alfa Aesar) was added to each well, and the plate was incubated for 3 h (5% CO2, 37 °C). Dimethyl sulfoxide (DMSO, Thermo Fisher Scientific) was used to dissolve the formazan crystals formed by the intracellular reduction of MTT. The absorbance was measured at a dual wavelength of 570/690 nm using a Multiskan SkyHigh microplate reader (Thermo Fisher Scientific). The percentage of viable cells was calculated and the concentration of each peptide able to inhibit 50% of cell viability (IC50) was determined. The experiments were carried out in three independent assays, and the results are shown as mean ± standard deviation (SD).

The subject of data set [3] is NO production in LPS-stimulated RAW 264.7 cells. Briefly: Griess assay (nitric oxide production) in LPS-stimulated macrophages. To be noted: at 10 µg/mL. It counts as cell-based, murine. From the text: The Griess assay is a classical indirect method to measure the production of nitric oxide through the quantification of nitrite anions. As previously mentioned, NO is an inflammatory biomarker that can be produced when LPS-activated macrophages produce proinflammatory mediators and cytokines, which in turn elicit the production of reactive species like ROS and the expression/activity of relevant enzymes, including the nitric oxide synthase (NOS).
The Nitrite Assay Kit (Griess Reagent, Sigma-Aldrich) was used to determine the influence of peptide treatments on nitric oxide production by RAW 264.7 cells activated by LPS (1 µg/mL). To this end, peptide solutions at different concentrations (50–3.12 µg/mL—serial dilution) in an FBS-free medium were used. Briefly, 7 × 10^4 RAW 264.7 cells per well were seeded in a 96-well plate and incubated for 24 h (5% CO2, 37 °C). On the next day, the medium was removed and replaced with different concentrations of the peptides. After another 24 h incubation period (5% CO2, 37 °C), 50 µL of culture supernatant was transferred to a 96-well plate. […] The absorbance was measured at 540 nm using a microplate reader (Multiskan SkyHigh, Thermo Scientific) A nitrite standard curve was plotted with nitrite standards at 0, 2, 4, 8, and 10 nmol/well, and the absorbances of each sample were compared to the standard curve. […]
On the technique in general: Nitrite, measured by Griess reagent, commonly stands in for NO production.

The nature of data set [4]: FRAP (ferric reducing antioxidant power) assay. Here is the method: The antioxidant power of a given compound is not limited to its radical-scavenging activity. In fact, the ferric reducing antioxidant power (FRAP) assay, is a well-established test to measure a compound’s ability to act as a reductant in a colorimetric redox reaction, where ferric (Fe^3+) ions are reduced to the ferrous (Fe^2+) state in the acidic medium.
The ferric-reducing antioxidant power (FRAP) was determined using a FRAP kit (Sigma-Aldrich) with minor modifications to the manufacturer’s instructions. Briefly, in a 96-well plate, 5 µL of peptides’ aqueous solutions at different concentrations (50–0.05 µg/mL) was added per well. Then, 95 µL of the reaction cocktail (FRAP assay buffer, FeCl3 solution, and FRAP probe) was added to each well. The absorbance was measured at 594 nm in kinetic mode (Multiskan SkyHigh, Thermo Fisher Scientific) for 60 min, at 37 °C. A ferrous standard curve was plotted with Ferrous ammonium sulfate at 0, 4, 8, 12, 16, and 20 nmol/well, and the absorbances of each sample were compared to the standard curve. Quercetin (100–0.1 µg/mL in ethanol) was used as a positive control. All measurements were performed in three independent experiments. Data are shown as mean ± SD.

Data set [5] has as its system O2•− production in LPS-stimulated RAW 264.7 cells. Briefly: Intracellular superoxide production (NBT assay) in LPS-stimulated macrophages. To be noted: at 10 µg/mL. It counts as cell-based, murine. Here is the method:
Considering the link between oxidative stress and inflammation, both the antioxidant and the anti-inflammatory potential of the selected peptides was determined in cellulo using macrophage-like cells (RAW 264.7 cell line) stimulated with lypopolysaccharides (LPSs) from Escherichia coli. […] In other words, RAW 264.7 cells are activated by foreign stimuli like, e.g., exposure to LPSs. This activation is initiated by the binding of LPSs to cell membrane receptors, which triggers signaling pathways that will result in the generation of proinflammatory mediators (e.g., nitric oxide) and cytokines such as interleukin (IL)-6, IL-8, tumor necrosis factor-alpha (TNF)-α [41, 42]. Since proinflammatory mediators are held in several metabolic pathways, including the production of reactive oxygen species (ROS), e.g., the radical-anion superoxide (O2^•−), LPS exposure also leads to oxidative stress. […]
The potential inhibitory effect of the peptides on superoxide radical (O2^−) by RAW 264.7 cells activated by LPS (1 µg/mL) was evaluated according to Mitra et al. with some modifications. […] The absorbance was measured in a microplate reader at a dual wavelength of 620/700 nm. […] The experiments were performed in three independent assays and the results were expressed as a percentage of O2^- production. […]

The target in data set [6] is ACE-1 enzyme (Homo sapiens, UniProt P12821). Briefly: ACE-1 inhibition assay (colorimetric kit).
Chain of ACE-1 enzyme (P12821 30-1306): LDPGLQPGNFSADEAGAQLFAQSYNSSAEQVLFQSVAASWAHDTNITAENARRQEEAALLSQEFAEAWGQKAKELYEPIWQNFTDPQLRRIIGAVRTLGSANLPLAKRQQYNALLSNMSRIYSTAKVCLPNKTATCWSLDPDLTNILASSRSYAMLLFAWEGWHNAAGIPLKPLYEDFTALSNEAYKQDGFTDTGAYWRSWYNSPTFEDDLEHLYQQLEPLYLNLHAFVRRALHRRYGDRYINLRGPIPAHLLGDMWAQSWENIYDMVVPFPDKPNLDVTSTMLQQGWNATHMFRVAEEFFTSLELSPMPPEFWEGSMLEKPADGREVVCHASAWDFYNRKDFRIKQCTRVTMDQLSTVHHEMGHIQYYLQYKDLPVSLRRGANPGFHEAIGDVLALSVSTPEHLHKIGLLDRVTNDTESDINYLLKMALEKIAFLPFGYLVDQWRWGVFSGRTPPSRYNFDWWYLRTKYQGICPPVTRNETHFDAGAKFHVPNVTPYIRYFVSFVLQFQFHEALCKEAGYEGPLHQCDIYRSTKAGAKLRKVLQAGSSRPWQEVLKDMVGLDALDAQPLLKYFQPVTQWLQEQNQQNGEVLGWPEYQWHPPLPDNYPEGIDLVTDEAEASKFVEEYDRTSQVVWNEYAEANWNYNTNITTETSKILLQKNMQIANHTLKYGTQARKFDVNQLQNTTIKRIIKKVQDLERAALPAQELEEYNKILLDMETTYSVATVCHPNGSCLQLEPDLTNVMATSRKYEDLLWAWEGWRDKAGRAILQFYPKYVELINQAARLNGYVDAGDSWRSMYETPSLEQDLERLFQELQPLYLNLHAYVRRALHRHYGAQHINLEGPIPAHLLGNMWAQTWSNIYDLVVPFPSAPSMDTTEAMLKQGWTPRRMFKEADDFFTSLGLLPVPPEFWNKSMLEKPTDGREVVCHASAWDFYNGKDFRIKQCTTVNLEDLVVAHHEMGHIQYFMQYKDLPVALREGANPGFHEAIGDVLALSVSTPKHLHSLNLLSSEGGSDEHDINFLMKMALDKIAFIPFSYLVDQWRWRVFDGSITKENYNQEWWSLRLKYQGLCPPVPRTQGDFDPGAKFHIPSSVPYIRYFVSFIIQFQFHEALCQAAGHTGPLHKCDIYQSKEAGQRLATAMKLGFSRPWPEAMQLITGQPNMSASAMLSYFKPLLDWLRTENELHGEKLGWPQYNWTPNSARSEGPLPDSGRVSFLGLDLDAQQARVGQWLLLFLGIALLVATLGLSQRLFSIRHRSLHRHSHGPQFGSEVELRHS
Procedure: Therefore, the ability of the LF-derived peptides to inhibit ACE-1 was evaluated.
The activity of the ACE-1 enzyme was measured using a colorimetric ACE-1 Inhibitor Screening Kit (Abcam) with minor modifications to the manufacturer’s instructions. Briefly, in a 96-well plate, 12.5 µL of peptide’s aqueous solutions at different concentrations (100–0.1 µg/mL) were added per well. Then, 20 µL of diluted ACE-1 enzyme solution was added to each well. The total volume of each well was adjusted to 100 µL and the plate was incubated at 37 °C for 15 min. After the incubation period, 25 µL of the reaction mixture (substrate mixture and ACE-1 assay buffer) were added to the samples, and the absorbance was read in kinetic mode at 345 nm for 60 min at 37 °C (Multiskan SkyHigh, Thermo Scientific). Captopril (22 ng/mL) was used as the positive control. The reaction inhibition percentage was calculated and the IC50 was determined (GraphPad Prism 9.4.0, GraphPad Software). The experiments were carried out in three independent assays and the results are expressed as mean ± SD.
For data set [7], the system named is spontaneously hypertensive rats. The arrangement: method as in PMID 16830788. To be noted: cited from earlier work.
Data set [8] deals with ACE-1. The following applies: cited from earlier work.

In the case of `O=c1c(O)c(-c2ccc(O)c(O)c2)oc2cc(O)cc(O)c12` [Quercetin], in data set [1], the “DPPH Radical Scavenging Activity (RIC50 mol/mol DPPH)” value was 0.09 ± 0.02 mol/mol DPPH. The compound further had an IC50 at 24 h in data set [2] of 65 ± 2 µg/mL (≈ 215 µM). Further, the “NO levels in LPS-activated cells” value in data set [3] is given as “significantly reduce NO levels”. For the same compound, the “FRAP (mM Ferrous Equivalents)” value in data set [4] (0.05 µg/mL) was determined as 0.85 ± 0.25 mM Ferrous Equivalents; in data set [4] (0.5 µg/mL), 1.40 ± 0.23 mM Ferrous Equivalents; in data set [4] (5 µg/mL) it was 8.02 ± 0.57 mM Ferrous Equivalents; in data set [4] (50 µg/mL), 16.09 ± 0.87 mM Ferrous Equivalents. The “reduction of O2•− production compared to the control (LPS +)” value in data set [5] is “about 25%”.

Turning to `CSCC[C@H](NC(=O)[C@H](CCCNC(=N)N)NC(=O)[C@H](Cc1c[nH]c2ccccc12)NC(=O)[C@H](CCC(N)=O)NC(=O)[C@H](Cc1c[nH]c2ccccc12)NC(=O)[C@H](CCCNC(=N)N)NC(=O)[C@H](CCCNC(=N)N)NC(=O)[C@H](CS)NC(=O)[C@H](CCCCN)NC(=O)[C@@H](N)Cc1ccccc1)C(=O)N[C@@H](CCCCN)C(=O)N[C@@H](CCCCN)C(=O)N[C@@H](CC(C)C)C(=O)NCC(=O)N[C@@H](C)C(N)=O` [bLF-17-31, FKCRRWQWRMKKLGA-NH2], the IC50 in data set [2] was 135 ± 6 µg/mL (≈ 67.7 µM); in data set [6], 31.6 µM.

In the case of “AKCAKFQRNMKKVRG-NH2 [aLF-17-31, AKCAKFQRNMKKVRG-NH2]”, the IC50 in data set [6] was 31.2 µM.

Regarding “APRKNVRWCTI-NH2 [bLF-1-11, APRKNVRWCTI-NH2]”, the IC50 at 24 h in data set [2] was determined as 290 ± 5 µg/mL.

As to “GRRRRSVQWCA-NH2 [rhLF-1-11, GRRRRSVQWCA-NH2]”, half-maximal inhibition in data set [2] (IC50 at 24 h) required 355 ± 12 µg/mL. Also, in data set [6], inhibition was half-maximal at 57.5 µM (IC50).

On to LRPVAA, for which, in data set [7], the blood pressure result was “reducing blood pressure”. The “ACE-1 inhibition in vitro” value in data set [8] is “effective in inhibiting ACE-1 in vitro”.

Regarding “WKLLSKAQEKFGKNKSR-NH2 [bLF-268-284, WKLLSKAQEKFGKNKSR-NH2]”, in data set [6], the IC50 was over 48.8 µM.

Take “WNLLRQAQEKFGKDKSP-NH2 [nhLF-268-284, WNLLRQAQEKFGKDKSP-NH2]”: the IC50 in data set [6] is 25.6 µM.

Broadly, the IC50 is the point on the concentration scale where inhibition reaches its midpoint. High values mean weaker potency, low ones greater potency.

(Values after PMC11816975, “Bioactive Peptides from Milk Proteins with Antioxidant, Anti-Inflammatory, and Antihypertensive Activities” (Foods, 2025).)
